One series concerns self-replicating, subgenomic HCV replicon in Huh-7 cells. The series can be described thus: HCV replicon assay. Format: cell-based. As to conditions: Hepatitis C virus, Huh-7, 72 h.
Chain of human mitochondrial RNA polymerase (O00411 42-1230): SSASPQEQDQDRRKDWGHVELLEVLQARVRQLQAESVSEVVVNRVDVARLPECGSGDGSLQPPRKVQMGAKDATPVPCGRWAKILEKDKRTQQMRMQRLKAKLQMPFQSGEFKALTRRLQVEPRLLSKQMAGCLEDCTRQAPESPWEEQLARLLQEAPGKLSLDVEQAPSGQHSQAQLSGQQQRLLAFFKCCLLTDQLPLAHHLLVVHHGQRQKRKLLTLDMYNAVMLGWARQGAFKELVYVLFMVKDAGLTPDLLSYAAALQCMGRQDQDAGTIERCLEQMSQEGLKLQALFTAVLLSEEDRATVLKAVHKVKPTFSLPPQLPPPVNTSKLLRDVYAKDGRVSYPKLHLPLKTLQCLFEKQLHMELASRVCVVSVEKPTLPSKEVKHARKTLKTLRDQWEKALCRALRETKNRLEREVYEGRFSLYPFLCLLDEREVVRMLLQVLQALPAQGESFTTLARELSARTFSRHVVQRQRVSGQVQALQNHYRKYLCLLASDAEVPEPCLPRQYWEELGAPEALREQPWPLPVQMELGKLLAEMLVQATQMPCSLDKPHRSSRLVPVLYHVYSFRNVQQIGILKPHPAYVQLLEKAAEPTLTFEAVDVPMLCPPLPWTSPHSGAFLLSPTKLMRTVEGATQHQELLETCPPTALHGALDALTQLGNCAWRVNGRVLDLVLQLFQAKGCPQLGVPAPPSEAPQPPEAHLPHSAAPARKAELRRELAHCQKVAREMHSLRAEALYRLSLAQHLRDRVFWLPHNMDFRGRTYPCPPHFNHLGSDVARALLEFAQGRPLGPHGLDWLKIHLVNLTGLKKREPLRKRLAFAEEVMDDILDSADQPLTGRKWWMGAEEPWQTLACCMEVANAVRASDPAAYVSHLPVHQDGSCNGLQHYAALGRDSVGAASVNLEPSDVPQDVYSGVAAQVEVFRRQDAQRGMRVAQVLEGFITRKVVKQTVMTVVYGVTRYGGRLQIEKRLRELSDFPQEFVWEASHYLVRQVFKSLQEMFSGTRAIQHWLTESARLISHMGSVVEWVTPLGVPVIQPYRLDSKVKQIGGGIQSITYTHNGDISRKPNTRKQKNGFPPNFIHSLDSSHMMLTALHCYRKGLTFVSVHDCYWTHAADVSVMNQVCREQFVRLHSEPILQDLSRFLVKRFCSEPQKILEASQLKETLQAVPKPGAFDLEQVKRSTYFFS
Take `CC(C)(C)C(=O)SCCOP(=O)(OCCSC(=O)C(C)(C)C)OC[C@@]1(F)O[C@@H](n2ccc(=O)[nH]c2=O)[C@](C)(O)[C@@H]1O` [Compound 58]: the EC50 (commonly the concentration at which the effect is half-maximal) is < 1000 nM. For `C#C[C@]1(F)[C@H](n2cnc3c(OCC)nc(N)nc32)O[C@](F)(COP(=O)(N[C@@H](C)C(=O)OC2CCCCC2)Oc2ccccc2)[C@H]1O` (some centres unmarked) [Compound 40], the 50% effective concentration (EC50) was 1000 to 10000 nM. On to `C[C@H](NP(=O)(OC[C@@]1(F)O[C@@H](n2ccc(=O)[nH]c2=O)[C@](C)(F)[C@@H]1O)Oc1ccccc1)C(=O)OC1CCCCC1` (some centres unmarked) [Compound 30], for which the EC50 is < 1000 nM.

In the case of `CCOc1nc(N)nc2c1ncn2[C@@H]1O[C@](F)(CO[P@](=O)(N[C@@H](C)C(=O)OC2CCCCC2)Oc2ccccc2)[C@@H](O)[C@@]1(C)F` [Compound 32], the EC50 is < 1000 nM.

Regarding `CCOc1nc(N)nc2c1ncn2[C@@H]1O[C@](F)(COP(=O)(N[C@@H](C)C(=O)OCC(C)C)Oc2ccccc2)[C@@H](O)[C@@]1(C)F` (some centres unmarked) [Compound 86], the concentration for a half-maximal effect (EC50) is < 1000 nM.

As to `CCOc1nc(N)nc2c1ncn2[C@@H]1O[C@](F)(CO[P@@](=O)(N[C@@H](C)C(=O)OC2CCCCC2)Oc2ccccc2)[C@@H](O)[C@@]1(C)F` [Compound 33], the concentration giving a half-maximal response (EC50) was < 1000 nM. Regarding `C#C[C@]1(F)[C@H](n2cnc3c(OCC)nc(N)nc32)O[C@](F)(COP(=O)(N[C@@H](C)C(=O)OC2CCCCC2)Oc2ccccc2)[C@H]1O` (single isomer, unassigned) [Compound 41], the EC50 lay within 1000 to 10000 nM.

Take `CCOc1nc(N)nc2c1ncn2[C@@H]1O[C@](F)(COP(=O)(N[C@@H](C)C(=O)OC(C)C)Oc2cccc3ccccc23)[C@@H](O)[C@@]1(C)F` (some centres unmarked) [Compound 83]: the EC50 is < 1000 nM.

With `CCOc1nc(N)nc2c1ncn2[C@@H]1O[C@](F)(COP(=O)(N[C@@H](C)C(=O)OCC(C)C)Oc2cccc3ccccc23)[C@@H](O)[C@@]1(C)F` (some centres unmarked) [Compound 84], the EC50 was < 1000 nM. The same measure, in the same setting: as for `C#C[C@]1(O)[C@H](n2cnc3c(OCC)nc(N)nc32)O[C@](F)(CO[P@](=O)(N[C@@H](C)C(=O)OC2CCCCC2)Oc2ccccc2)[C@H]1O` [Compound 34], the figure is < 1000 nM; as for `C=C[C@]1(O)[C@H](n2ccc(=O)[nH]c2=O)O[C@](F)(CO[P@@](=O)(N[C@@H](C)C(=O)OC(C)C)Oc2ccccc2)[C@H]1O` [Compound 77], 1000 to 10000 nM. Same read-out and setting: for `CC(C)OC(=O)[C@H](C)NP(=O)(OC[C@@]1(F)O[C@@H](n2ccc(=O)[nH]c2=O)[C@](C)(F)[C@@H]1O)Oc1ccccc1` (some centres unmarked) [Compound 31] the value was < 1000 nM. On the same count and under the same terms, for `CC(C)(C)C(=O)SCCOCCOP(=O)(OCCOCCSC(=O)C(C)(C)C)OC[C@@]1(F)O[C@@H](n2ccc(=O)[nH]c2=O)[C@](C)(O)[C@@H]1O` [Compound 59] the value was 10000 to 100000 nM; for `C[C@H](NP(=O)(OC[C@@]1(F)O[C@@H](n2ccc(=O)[nH]c2=O)[C@](C)(O)C1O)Oc1ccccc1)C(=O)OCC(C)(C)C` (some centres unmarked) [Compound 5], < 1000 nM; for `C#C[C@]1(O)[C@H](n2cnc3c(OCC)nc(N)nc32)O[C@](F)(CO[P@@](=O)(N[C@@H](C)C(=O)OC2CCCCC2)Oc2ccccc2)[C@H]1O` [Compound 35], < 1000 nM.

For the compound `CCOc1nc(N)nc2c1ncn2[C@@H]1O[C@](F)(COP(=O)(N[C@@H](C)C(=O)OC(C)C)Oc2ccccc2)[C@@H](O)[C@@]1(C)F` (some centres unmarked) [Compound 85], the EC50 was < 1000 nM.

The same series, now with this note: Hepatitis C virus; Huh-7 HCV replicon cells, luciferase reporter, 72 h; read-out: EC50.
For the compound `CCOc1nc(N)nc2c1ncn2[C@@H]1O[C@]2(F)CO[P@](=O)(OC(C)C)O[C@H]2[C@@]1(C)O` (single isomer, unassigned) [Compound 36], the concentration giving a half-maximal response (EC50) was < 1000 nM. On the same count and under the same terms, for `C[C@]1(F)[C@H](n2ccc(N)nc2=O)O[C@](F)(CO)[C@H]1O` [Compound 27] the value was 10000 to 100000 nM. Same read-out and setting: for `CC(C)OC(=O)OCOP(=O)(OCOC(=O)OC(C)C)OC[C@@]1(F)O[C@@H](n2ccc(=O)[nH]c2=O)[C@](C)(O)[C@@H]1O` [Compound 14] the value was < 1000 nM; for `CCOc1nc(N)nc2c1ncn2[C@@H]1O[C@](F)(COP(=O)(OCOC(=O)OC(C)C)OCOC(=O)OC(C)C)[C@@H](O)[C@@]1(C)F` [Compound 53], < 1000 nM. On the same count and under the same terms, as for `CC(C)(C)C(=O)OCOP(=O)(OCOC(=O)C(C)(C)C)OC[C@@]1(F)O[C@@H](n2ccc(=O)[nH]c2=O)[C@](C)(O)[C@@H]1O` [Compound 55], the figure is < 1000 nM. `CCOc1nc(N)nc2c1ncn2[C@@H]1O[C@]2(F)CO[P@@](=O)(OC(C)C)O[C@H]2[C@@]1(C)O` [Compound 37]: the EC50 is < 1000 nM. Turning to `CCOc1nc(N)nc2c1ncn2[C@@H]1O[C@]2(F)CO[P@@](=O)(OC(C)C)O[C@H]2[C@@]1(C)F` [Compound 43], the EC50 was < 1000 nM. Same read-out and setting: for `C[C@]1(F)[C@H](n2cnc3c(=O)[nH]c(N)nc32)O[C@](F)(CO)[C@H]1O` [Compound 29] the value was 10000 to 100000 nM; for `C[C@]1(F)[C@H](n2ccc(N)nc2=O)O[C@](F)(COP(=O)(O)OP(=O)(O)OP(=O)(O)O)[C@H]1O` [Compound 28], < 1000 nM; for `C#C[C@]1(O)[C@H](n2ccc(=O)[nH]c2=O)O[C@](F)(COP(=O)(OCOC(=O)OC(C)C)OCOC(=O)OC(C)C)[C@H]1O` [Compound 51], 1000 to 10000 nM.

As to `CC(C)OC(=O)OCOP(=O)(OCOC(=O)OC(C)C)OC[C@@]1(F)O[C@@H](n2cnc3c(=O)[nH]c(N)nc32)[C@](C)(O)[C@@H]1O` [Compound 49], the EC50 was < 1000 nM. Same read-out and setting: as for `CCOc1nc(N)nc2c1ncn2[C@@H]1O[C@](F)(COP(=O)(OCOC(=O)OC(C)C)OCOC(=O)OC(C)C)[C@@H](O)[C@@]1(C)O` [Compound 52], the figure is < 1000 nM.

The same series, now with this note: read-out: EC50.
`CCOc1nc(N)nc2c1ncn2[C@@H]1O[C@]2(F)CO[P@](=O)(OC(C)C)O[C@H]2[C@@]1(C)F` [Compound 42]: the EC50 is < 1000 nM.

A further series concerns the target NS5B570-Con1 (Delta-21) (Hepatitis C virus genotype 1b, UniProt Q9WMX2). Briefly: biochemical. Format: biochemical, HCV (Con-1 strain). As to conditions: 50 nM NS5B570-Con1, cIRES RNA template, 2 h at 37° C., mean of several independent experiments.
As for `C#C[C@]1(F)[C@H](n2cnc3c(=O)[nH]c(N)nc32)O[C@](F)(COP(=O)(O)OP(=O)(O)OP(=O)(O)O)[C@H]1O` [Compound 44], the IC50 – broadly, the midpoint of a concentration-inhibition curve – was < 1000 nM.

Still in this series, the particulars now being: 50 nM NS5B570-Con1, cIRES RNA template, 2 h at 37° C., mean of several independent experiments; read-out: IC50.
On to `C[C@]1(Cl)[C@H](n2ccc(=O)[nH]c2=O)O[C@](F)(COP(=O)(O)OP(=O)(O)OP(=O)(O)O)[C@H]1O` [Compound 46], for which the IC50 is < 1000 nM.

The series is the same for the next values; noted with them: IC50, 50 nM NS5B570-Con1, cIRES RNA template, 2 h at 37° C., mean of several independent experiments.
As for `O=c1ccn([C@@H]2O[C@](F)(COP(=O)(O)OP(=O)(O)OP(=O)(O)O)[C@@H](O)[C@]2(O)CF)c(=O)[nH]1` [Compound 76], the IC50 is < 1000 nM. The same measure, in the same setting: as for `C[C@]1(O)[C@H](n2ccc(=O)[nH]c2=O)O[C@](F)(COP(O)(=S)OP(=O)(O)OP(=O)(O)O)[C@H]1O` (single isomer, unassigned) [Compound 7a], the figure is < 1000 nM; as for `C[C@]1(O)[C@H](n2ccc(=O)[nH]c2=O)O[C@](F)(COP(O)(=S)OP(=O)(O)OP(=O)(O)O)[C@H]1O` (single isomer, unassigned) [Compound 7b], 1000 to 10000 nM. On to `C#C[C@]1(O)[C@H](n2cnc3c(=O)[nH]c(N)nc32)O[C@](F)(COP(=O)(O)OP(=O)(O)OP(=O)(O)O)[C@H]1O` [Compound 9], for which the IC50 was < 1000 nM. For `C#C[C@]1(F)[C@H](n2cnc3c(=O)[nH]c(N)nc32)O[C@](F)(COP(=O)(O)OP(=O)(O)OP(=O)(O)O)[C@H]1O` [Compound 69], the IC50 was < 1000 nM.

For another series, the system named is mitochondrial protein synthesis (COX I / SDH A) in HepG2 cells.
Assay: not given
Conditions: not given
`COc1nc(N)nc2c1ncn2[C@@H]1O[C@H](COP(=O)(N[C@@H](C)C(=O)OCC(C)(C)C)Oc2cccc3ccccc23)[C@@H](O)[C@@]1(C)O` (some centres unmarked) [INX-08189/BMS-986094]: the “inhibition of mitochondrial protein synthesis (COX I/SDH A ratio)” value is listed as “strongly inhibit mitochondrial protein synthesis”. Still for that read-out and setting: as for `Nc1ccn([C@H]2CC[C@@H](CO)O2)c(=O)n1` [ddC], the entry is “strongly inhibit mitochondrial protein synthesis”; as for `Cc1cn([C@H]2C=C[C@@H](CO)O2)c(=O)[nH]c1=O` [d4T], “not to inhibit mitochondrial protein synthesis at concentrations up to 100 μM”.

A further series addresses human mitochondrial RNA polymerase (Homo sapiens, UniProt O00411). The series can be described thus: DdRp assay: incorporation of nucleotides by human mitochondrial RNA polymerase (HMRP). As to conditions: single turnover, 100 μM NTP, 30° C., 1 minute; product band on gel.
With `C[C@@]1(F)[C@H](O)[C@@H](COP(=O)(O)OP(=O)(O)OP(=O)(O)O)O[C@H]1n1ccc(=O)[nH]c1=O` [2′-Me-2′-F-UTP], the “incorporation by HMRP, template for UTP analogs (FIG. 10)” value was “not efficient substrates for incorporation by HMRP”. For the compound `Nc1ncnc2c1ncn2[C@@H]1O[C@H](COP(=O)(O)OP(=O)(O)OP(=O)(O)O)[C@@H](O)[C@H]1O` [ATP], the “incorporation by HMRP, template for GTP analogs (FIG. 11)” value is recorded as “poor substrate for incorporation”.

These data come from patent US10144755B2, “Substituted nucleosides, nucleotides and analogs thereof” (ALIOS BIOPHARMA, INC., priority 2012, dated 2018).
